Where two headings read alike, the source gives them in different places.
Assays:
[1] = molecular target: T1, wild type human carboxypeptidase A1 (Homo sapiens, UniProt P15085); experiment: Enzyme kinetics of prodrugs with wild type human carboxypeptidase A1 (coupled assay); format: biochemical
T1 sequence (P15085 111-419): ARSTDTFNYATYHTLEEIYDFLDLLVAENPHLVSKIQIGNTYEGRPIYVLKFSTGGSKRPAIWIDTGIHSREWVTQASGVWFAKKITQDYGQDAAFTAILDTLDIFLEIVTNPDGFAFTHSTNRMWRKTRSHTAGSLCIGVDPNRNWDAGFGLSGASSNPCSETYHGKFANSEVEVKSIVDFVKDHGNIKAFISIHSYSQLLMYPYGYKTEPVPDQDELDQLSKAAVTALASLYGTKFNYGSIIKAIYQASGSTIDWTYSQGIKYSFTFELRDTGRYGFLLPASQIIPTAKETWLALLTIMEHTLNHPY
Procedure, shortened: (§1)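 Coupled spectrophotometric assay: released methotrexate converted by excess carboxypeptidase G (17 milliunits) to its pteroate, followed at 315 nm (Δε 9.57 mM^-1 cm^-1). 25° C in 25 mM tris-HCl, 100 mM NaCl, pH 7.4; reaction started with wild-type or mutant carboxypeptidase A. Kinetic constants from initial velocities by Michaelis-Menten analysis.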

268gly = experiment: Enzyme kinetics of prodrugs with 268gly mutant of human CPA1 (coupled assay); format: biochemical
Procedure, shortened: as §1

[2] = Stability and biodistribution of prodrugs in vivo (HPLC of plasma and tissues); design: species or system mice (CD-1 nude; BALB/C where indicated)
mutant enzyme = experiment: Substrate behaviour with mutant enzyme; format: biochemical, human
Text: This type of compound is not useful for ADEPT.

in vivo = settings: mouse, iv
268ala = experiment: Enzyme kinetics of prodrugs with 268ala mutant of human CPA1 (coupled assay); format: biochemical; settings: 25° C., pH 7.4
Procedure, shortened: as §1

[3] = mouse, in vivo, iv

For `CN(Cc1cnc2nc(N)nc(N)c2n1)c1ccc(C(=O)N[C@@H](CCC(=O)O)C(=O)N[C@@H](Cc2ccc(O)c(C3CCCC3)c2)C(=O)O)cc1` [Prodrug 13, N-(4-(((2,4-diamino-6-pteridinyl)methyl)methyamino)benzoyl)-L-glutam-1-yl-3-cyclopentyl-L-tyrosine], the “human CPA catalyzed reaction (in words)” value [1] was “not measureable”, the “kcat/Km for human CPA1 compared with that of the L-phenylalanine prodrug (in words)” value [1] was “much lower” and the “substrate for wild type CPA (in words)” value [1] was “not for the wild type enzyme”. The “kcat (symbol ND)” value ([1]; Human CPA1, rate too slow to assay) was “ND (not determined; rate to slow assay. kcat ≤ 0.0005/sec.)”, the kcat/Km (268gly; 268Gly) was 180000 M⁻¹ s⁻¹ and the Km (268gly; 268gly, 25° C., pH 7.4) was 18 µM. For the same compound, the kcat (268gly; 268gly, 25° C., pH 7.4) was 3 s⁻¹, the “concentration of prodrug in cecum” value ([2]; CECUM, 30 min, 50 mg/kg i.p. or i.v., CD-1 nude mice) was 14.4 nmol/g and the “concentration of prodrug in cecum” value ([2]; CECUM, 120 min, 50 mg/kg i.p. or i.v., CD-1 nude mice) was 4.8 nmol/g. For the same compound, the “concentration of prodrug in feces” value ([2]; FECES, 30 min, 50 mg/kg i.p. or i.v., CD-1 nude mice) was 665.8 nmol/g, the “concentration of prodrug in feces” value ([2]; FECES, 120 min, 50 mg/kg i.p. or i.v., CD-1 nude mice) was 738.4 nmol/g and the “concentration of prodrug in kidney” value ([2]; KIDNEY, 30 min, 50 mg/kg i.p. or i.v., CD-1 nude mice) was 3.7 nmol/g. The “concentration of prodrug in kidney” value ([2]; KIDNEY, 120 min, 50 mg/kg i.p. or i.v., CD-1 nude mice) was 0.5 nmol/g, the “concentration of prodrug in large intestine” value ([2]; LARGE INTESTINE, 30 min, 50 mg/kg i.p. or i.v., CD-1 nude mice) was 7.9 nmol/g and the “concentration of prodrug in large intestine” value ([2]; LARGE INTESTINE, 120 min, 50 mg/kg i.p. or i.v., CD-1 nude mice) was 12.5 nmol/g. For the same compound, the “concentration of prodrug in liver” value ([2]; LIVER, 30 min, 50 mg/kg i.p. or i.v., CD-1 nude mice) was 47.7 nmol/g, the “concentration of prodrug in liver” value ([2]; LIVER, 120 min, 50 mg/kg i.p. or i.v., CD-1 nude mice) was 129.0 nmol/g and the “concentration of prodrug in small intestine” value ([2]; SMALL INTESTINE, 30 min, 50 mg/kg i.p. or i.v., CD-1 nude mice) was 373.7 nmol/g. For the same compound, the “concentration of prodrug in small intestine” value ([2]; SMALL INTESTINE, 120 min, 50 mg/kg i.p. or i.v., CD-1 nude mice) was 322.1 nmol/g, the “concentration of prodrug in spleen” value ([2]; SPLEEN, 30 min, 50 mg/kg i.p. or i.v., CD-1 nude mice) was 0.6 nmol/g and the “concentration of prodrug in spleen” value ([2]; SPLEEN, 120 min, 50 mg/kg i.p. or i.v., CD-1 nude mice) was 0.2 nmol/g. The “stability in vivo (in words)” value ([2]; mice, 50 mg/kg) was “stable in vivo”, the remaining at 0.5 h ([2]; mouse, cecum, 50 mg/kg, CECUM, 30 min, 50 mg/kg i.p. or i.v., CD-1 nude mice, read-out: stability: percentage of material observed as intact prodrug, cecum) was 100% and the remaining at 2 h ([2]; mouse, cecum, 50 mg/kg, CECUM, 120 min, 50 mg/kg i.p. or i.v., CD-1 nude mice, read-out: stability: percentage of material observed as intact prodrug, cecum) was 100%. It also gave a remaining at 0.5 h ([2]; mouse, feces, 50 mg/kg, FECES, 30 min, 50 mg/kg i.p. or i.v., CD-1 nude mice, read-out: stability: percentage of material observed as intact prodrug, feces (converted)) of 100%, a remaining at 2 h ([2]; mouse, feces, 50 mg/kg, FECES, 120 min, 50 mg/kg i.p. or i.v., CD-1 nude mice, read-out: stability: percentage of material observed as intact prodrug, feces) of 100% and a remaining at 0.5 h ([2]; mouse, kidney, 50 mg/kg, KIDNEY, 30 min, 50 mg/kg i.p. or i.v., CD-1 nude mice, read-out: stability: percentage of material observed as intact prodrug, kidney) of 100%. For the same compound, the remaining at 2 h ([2]; mouse, kidney, 50 mg/kg, KIDNEY, 120 min, 50 mg/kg i.p. or i.v., CD-1 nude mice, read-out: stability: percentage of material observed as intact prodrug, kidney) was 100%, the remaining at 0.5 h ([2]; mouse, large intestine, 50 mg/kg, LARGE INTESTINE, 30 min, 50 mg/kg i.p. or i.v., CD-1 nude mice, read-out: stability: percentage of material observed as intact prodrug, large intestine) was 100% and the remaining at 2 h ([2]; mouse, large intestine, 50 mg/kg, LARGE INTESTINE, 120 min, 50 mg/kg i.p. or i.v., CD-1 nude mice, read-out: stability: percentage of material observed as intact prodrug, large intestine) was 100%. For the same compound, the remaining at 0.5 h ([2]; mouse, liver, 50 mg/kg, LIVER, 30 min, 50 mg/kg i.p. or i.v., CD-1 nude mice, read-out: stability: percentage of material observed as intact prodrug, liver (converted)) was 100%, the remaining at 2 h ([2]; mouse, liver, 50 mg/kg, LIVER, 120 min, 50 mg/kg i.p. or i.v., CD-1 nude mice, read-out: stability: percentage of material observed as intact prodrug, liver) was 100% and the concentration at 0.5 h ([2]; mouse, plasma, 50 mg/kg, PLASMA, 30 min, 50 mg/kg i.p. or i.v., CD-1 nude mice, read-out: concentration of prodrug in plasma) was 3300 nM. The remaining at 0.5 h ([2]; mouse, plasma, 50 mg/kg, PLASMA, 30 min, 50 mg/kg i.p. or i.v., CD-1 nude mice, read-out: stability: percentage of material observed as intact prodrug, plasma) was 100%, the concentration at 2 h ([2]; mouse, plasma, 50 mg/kg, PLASMA, 120 min, 50 mg/kg i.p. or i.v., CD-1 nude mice, read-out: concentration of prodrug in plasma) was 600 nM and the remaining at 2 h ([2]; mouse, plasma, 50 mg/kg, PLASMA, 120 min, 50 mg/kg i.p. or i.v., CD-1 nude mice, read-out: stability: percentage of material observed as intact prodrug, plasma) was 100%. For the same compound, the remaining at 0.5 h ([2]; mouse, small intestine, 50 mg/kg, SMALL INTESTINE, 30 min, 50 mg/kg i.p. or i.v., CD-1 nude mice, read-out: stability: percentage of material observed as intact prodrug, small intestine) was 100%, the remaining at 2 h ([2]; mouse, small intestine, 50 mg/kg, SMALL INTESTINE, 120 min, 50 mg/kg i.p. or i.v., CD-1 nude mice, read-out: stability: percentage of material observed as intact prodrug, small intestine) was 100% and the remaining at 0.5 h ([2]; mouse, spleen, 50 mg/kg, SPLEEN, 30 min, 50 mg/kg i.p. or i.v., CD-1 nude mice, read-out: stability: percentage of material observed as intact prodrug, spleen) was 100%. For the same compound, the remaining at 2 h ([2]; mouse, spleen, 50 mg/kg, SPLEEN, 120 min, 50 mg/kg i.p. or i.v., CD-1 nude mice, read-out: stability: percentage of material observed as intact prodrug, spleen) was 100%, the “substrate for a mutant enzyme (in words)” value (mutant enzyme) was “good substrates for a mutant enzyme” and the MTD (in vivo) was ≥ 50 mg/kg. For the same compound, the Km (268ala) was 50 µM, the kcat (268ala) was 0.0006 s⁻¹ and the “maximum tolerated dose (MTD)” value [3] was > 50 mg/kg.

Reference: patent US6319702A, “Nucleic acids encoding mutant human carboxypeptidase A enzymes” (Glaxo Wellcome, Inc., priority 1993, dated 2001)
